This passage reports IC50 results from patent publication US12258327B2, “5-membered heteroaryl-containing aminopyridine compounds as EGFR inhibitors” (YUHAN CORPORATION, priority 2021, dated 2025).

Like-named read-outs stand apart in the source and are kept apart here.

Assay [1] addresses EGFR del19/C797S (Homo sapiens, UniProt P00533, C797S/DEL746-750). Put plainly: Biochemical EGFR kinase assay (Lance Ultra TR-FRET), double mutant del19/C797S. The method, boiled down:
(§1)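 Kinase activity is measured by TR-FRET phosphopeptide detection. Compounds span 0.003 μM to 10 μM; the 1 h reaction at room temperature is quenched with EDTA, then labelled antibody (2 nM) is incubated 60 min before reading.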
On the technique in general: TR-FRET usually uses a lanthanide donor and a delayed reading to cut background.

For assay [2], the target named is EGFR L858R/C797S (Homo sapiens, UniProt P00533, C797S/L858R). Description: Biochemical EGFR kinase assay (Lance Ultra TR-FRET), double mutant L858R/C797S. The method, boiled down: as §1
Assay [3] has as its target EGFR del19/T790M/C797S (Homo sapiens, UniProt P00533, C797S/DEL746-750/T790M). Put plainly: Biochemical EGFR kinase assay (Lance Ultra TR-FRET), triple mutant del19/T790M/C797S. The method, boiled down: as §1
Assay [4] addresses EGFR L858R/T790M/C797S (Homo sapiens, UniProt P00533, C797S/L858R/T790M). Description: Biochemical EGFR kinase assay (Lance Ultra TR-FRET), triple mutant L858R/T790M/C797S. The method, boiled down:
as §1

Assay [5] addresses EGFR wildtype (WT) (Homo sapiens, UniProt P00533). Description: Biochemical EGFR kinase assay (Lance Ultra TR-FRET), wildtype. The method, boiled down:
as §1

The mark [6] stands for this setting: Km ATP, read-out: IC50 del19/C797S (nM) Km ATP.
The mark [7] stands for this setting: Km ATP, read-out: IC50 L858R/C797S (nM) Km ATP.
Setting [8] is: Km ATP, read-out: IC50 del19/T790M/C797S (nM) Km ATP.
Where [9] appears, read: Km ATP, read-out: IC50 L858R/T790M/C797S (nM) Km ATP.
Where [10] appears, read: Km ATP, read-out: IC50 WT (nM) Km ATP.
The mark [11] stands for this setting: IC50 del19/C797S (nM) 100 μM ATP, 100 μM ATP.
The mark [12] stands for this setting: IC50 L858R/C797S (nM) 100 μM ATP, 100 μM ATP.
Where [13] appears, read: IC50 del19/T790M/C797S (nM) 100 μM ATP, 100 μM ATP.
The mark [14] stands for this setting: IC50 L858R/T790M/C797S (nM) 100 μM ATP, 100 μM ATP.
Where [15] appears, read: IC50 WT (nM) 100 μM ATP, 100 μM ATP.

Sequence of EGFR del19/C797S (P00533 with tags, fused parts or gaps DEL746-750/C797S): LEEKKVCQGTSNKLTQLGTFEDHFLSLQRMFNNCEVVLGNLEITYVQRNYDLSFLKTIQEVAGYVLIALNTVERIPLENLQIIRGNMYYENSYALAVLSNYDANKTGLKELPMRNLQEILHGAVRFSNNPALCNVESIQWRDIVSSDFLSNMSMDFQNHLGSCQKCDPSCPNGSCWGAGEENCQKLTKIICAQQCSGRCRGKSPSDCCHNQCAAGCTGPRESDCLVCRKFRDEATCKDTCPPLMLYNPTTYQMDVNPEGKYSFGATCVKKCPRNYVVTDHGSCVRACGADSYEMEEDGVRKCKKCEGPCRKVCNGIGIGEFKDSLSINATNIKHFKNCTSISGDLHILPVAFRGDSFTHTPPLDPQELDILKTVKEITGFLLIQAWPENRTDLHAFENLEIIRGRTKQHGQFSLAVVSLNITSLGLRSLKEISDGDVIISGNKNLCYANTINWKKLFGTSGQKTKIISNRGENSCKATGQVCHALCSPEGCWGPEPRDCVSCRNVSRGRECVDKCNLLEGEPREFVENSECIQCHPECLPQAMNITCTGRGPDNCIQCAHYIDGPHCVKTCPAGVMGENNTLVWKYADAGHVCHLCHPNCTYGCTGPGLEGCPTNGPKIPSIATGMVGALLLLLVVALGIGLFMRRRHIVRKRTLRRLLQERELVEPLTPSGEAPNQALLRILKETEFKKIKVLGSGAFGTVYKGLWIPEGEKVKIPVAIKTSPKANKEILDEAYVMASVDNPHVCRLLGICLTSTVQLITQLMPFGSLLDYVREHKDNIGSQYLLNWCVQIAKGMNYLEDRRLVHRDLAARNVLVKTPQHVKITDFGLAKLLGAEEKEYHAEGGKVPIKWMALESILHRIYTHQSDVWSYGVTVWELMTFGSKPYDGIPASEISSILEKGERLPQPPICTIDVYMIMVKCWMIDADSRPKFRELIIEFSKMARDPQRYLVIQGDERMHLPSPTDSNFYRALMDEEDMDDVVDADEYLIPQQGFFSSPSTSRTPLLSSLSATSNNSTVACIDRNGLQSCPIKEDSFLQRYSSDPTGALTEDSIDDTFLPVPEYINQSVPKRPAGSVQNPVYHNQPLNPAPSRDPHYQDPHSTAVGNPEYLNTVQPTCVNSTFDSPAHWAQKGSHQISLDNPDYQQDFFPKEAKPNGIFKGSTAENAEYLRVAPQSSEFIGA
Sequence of EGFR wildtype (WT) (P00533 25-1210): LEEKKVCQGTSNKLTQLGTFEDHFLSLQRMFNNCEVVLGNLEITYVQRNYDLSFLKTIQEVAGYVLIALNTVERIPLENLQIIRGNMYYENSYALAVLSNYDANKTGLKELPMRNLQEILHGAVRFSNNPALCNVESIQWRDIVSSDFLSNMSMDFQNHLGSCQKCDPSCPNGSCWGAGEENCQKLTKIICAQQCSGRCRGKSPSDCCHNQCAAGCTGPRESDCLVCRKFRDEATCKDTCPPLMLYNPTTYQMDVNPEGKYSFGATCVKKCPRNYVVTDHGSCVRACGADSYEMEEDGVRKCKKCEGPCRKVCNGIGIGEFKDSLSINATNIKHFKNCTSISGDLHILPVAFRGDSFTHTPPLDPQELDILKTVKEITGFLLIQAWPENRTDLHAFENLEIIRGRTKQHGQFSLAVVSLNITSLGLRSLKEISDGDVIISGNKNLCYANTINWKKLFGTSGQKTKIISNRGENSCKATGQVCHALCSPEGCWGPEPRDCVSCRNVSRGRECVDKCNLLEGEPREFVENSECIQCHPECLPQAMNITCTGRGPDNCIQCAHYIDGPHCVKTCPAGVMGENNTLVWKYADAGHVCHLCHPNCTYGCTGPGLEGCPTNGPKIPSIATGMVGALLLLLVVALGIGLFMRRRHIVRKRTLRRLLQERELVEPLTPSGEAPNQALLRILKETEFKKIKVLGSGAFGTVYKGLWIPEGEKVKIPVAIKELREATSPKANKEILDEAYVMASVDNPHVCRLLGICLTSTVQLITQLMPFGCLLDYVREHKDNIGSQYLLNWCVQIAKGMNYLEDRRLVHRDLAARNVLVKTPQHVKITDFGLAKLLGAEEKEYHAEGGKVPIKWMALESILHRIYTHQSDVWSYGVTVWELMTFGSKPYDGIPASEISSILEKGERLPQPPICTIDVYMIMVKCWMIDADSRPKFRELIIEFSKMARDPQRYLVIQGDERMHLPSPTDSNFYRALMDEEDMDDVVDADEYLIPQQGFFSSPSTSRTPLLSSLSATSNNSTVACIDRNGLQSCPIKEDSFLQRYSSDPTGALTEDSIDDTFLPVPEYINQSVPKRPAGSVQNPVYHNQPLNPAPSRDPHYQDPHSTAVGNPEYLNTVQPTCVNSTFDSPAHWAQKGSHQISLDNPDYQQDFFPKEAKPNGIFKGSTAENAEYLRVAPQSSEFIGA
Sequence of EGFR L858R/T790M/C797S (P00533 25-1210 T790M/C797S/L858R): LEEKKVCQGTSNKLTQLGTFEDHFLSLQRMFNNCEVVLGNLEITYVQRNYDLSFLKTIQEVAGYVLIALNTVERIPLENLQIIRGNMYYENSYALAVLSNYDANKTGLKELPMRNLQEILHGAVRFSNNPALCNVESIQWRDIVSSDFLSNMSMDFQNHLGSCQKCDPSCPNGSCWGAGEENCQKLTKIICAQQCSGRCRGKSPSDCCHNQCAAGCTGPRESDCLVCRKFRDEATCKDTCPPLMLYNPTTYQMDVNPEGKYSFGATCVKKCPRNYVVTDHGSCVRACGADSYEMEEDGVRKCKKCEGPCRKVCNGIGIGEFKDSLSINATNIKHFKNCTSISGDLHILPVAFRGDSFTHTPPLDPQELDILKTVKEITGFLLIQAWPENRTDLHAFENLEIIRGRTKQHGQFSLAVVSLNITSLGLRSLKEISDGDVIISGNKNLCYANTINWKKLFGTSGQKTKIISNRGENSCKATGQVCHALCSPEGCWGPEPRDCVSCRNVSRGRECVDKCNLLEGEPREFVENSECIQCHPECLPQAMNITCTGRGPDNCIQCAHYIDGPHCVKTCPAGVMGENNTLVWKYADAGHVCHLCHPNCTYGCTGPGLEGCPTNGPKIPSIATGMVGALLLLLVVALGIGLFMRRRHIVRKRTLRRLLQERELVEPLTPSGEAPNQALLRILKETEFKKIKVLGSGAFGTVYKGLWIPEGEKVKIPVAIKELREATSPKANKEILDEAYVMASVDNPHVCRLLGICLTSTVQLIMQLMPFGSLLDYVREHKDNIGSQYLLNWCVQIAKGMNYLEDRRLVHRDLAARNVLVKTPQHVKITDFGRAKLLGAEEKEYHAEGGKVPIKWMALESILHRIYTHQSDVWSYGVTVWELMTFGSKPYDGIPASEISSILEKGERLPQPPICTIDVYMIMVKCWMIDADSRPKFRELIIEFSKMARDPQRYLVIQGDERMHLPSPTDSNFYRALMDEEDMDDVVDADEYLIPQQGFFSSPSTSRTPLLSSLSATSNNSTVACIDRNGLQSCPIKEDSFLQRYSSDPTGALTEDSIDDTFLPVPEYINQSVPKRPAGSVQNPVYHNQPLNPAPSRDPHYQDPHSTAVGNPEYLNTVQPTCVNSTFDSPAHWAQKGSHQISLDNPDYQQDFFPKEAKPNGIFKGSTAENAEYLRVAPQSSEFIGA
Sequence of EGFR del19/T790M/C797S (P00533 with tags, fused parts or gaps DEL746-750/T790M/C797S): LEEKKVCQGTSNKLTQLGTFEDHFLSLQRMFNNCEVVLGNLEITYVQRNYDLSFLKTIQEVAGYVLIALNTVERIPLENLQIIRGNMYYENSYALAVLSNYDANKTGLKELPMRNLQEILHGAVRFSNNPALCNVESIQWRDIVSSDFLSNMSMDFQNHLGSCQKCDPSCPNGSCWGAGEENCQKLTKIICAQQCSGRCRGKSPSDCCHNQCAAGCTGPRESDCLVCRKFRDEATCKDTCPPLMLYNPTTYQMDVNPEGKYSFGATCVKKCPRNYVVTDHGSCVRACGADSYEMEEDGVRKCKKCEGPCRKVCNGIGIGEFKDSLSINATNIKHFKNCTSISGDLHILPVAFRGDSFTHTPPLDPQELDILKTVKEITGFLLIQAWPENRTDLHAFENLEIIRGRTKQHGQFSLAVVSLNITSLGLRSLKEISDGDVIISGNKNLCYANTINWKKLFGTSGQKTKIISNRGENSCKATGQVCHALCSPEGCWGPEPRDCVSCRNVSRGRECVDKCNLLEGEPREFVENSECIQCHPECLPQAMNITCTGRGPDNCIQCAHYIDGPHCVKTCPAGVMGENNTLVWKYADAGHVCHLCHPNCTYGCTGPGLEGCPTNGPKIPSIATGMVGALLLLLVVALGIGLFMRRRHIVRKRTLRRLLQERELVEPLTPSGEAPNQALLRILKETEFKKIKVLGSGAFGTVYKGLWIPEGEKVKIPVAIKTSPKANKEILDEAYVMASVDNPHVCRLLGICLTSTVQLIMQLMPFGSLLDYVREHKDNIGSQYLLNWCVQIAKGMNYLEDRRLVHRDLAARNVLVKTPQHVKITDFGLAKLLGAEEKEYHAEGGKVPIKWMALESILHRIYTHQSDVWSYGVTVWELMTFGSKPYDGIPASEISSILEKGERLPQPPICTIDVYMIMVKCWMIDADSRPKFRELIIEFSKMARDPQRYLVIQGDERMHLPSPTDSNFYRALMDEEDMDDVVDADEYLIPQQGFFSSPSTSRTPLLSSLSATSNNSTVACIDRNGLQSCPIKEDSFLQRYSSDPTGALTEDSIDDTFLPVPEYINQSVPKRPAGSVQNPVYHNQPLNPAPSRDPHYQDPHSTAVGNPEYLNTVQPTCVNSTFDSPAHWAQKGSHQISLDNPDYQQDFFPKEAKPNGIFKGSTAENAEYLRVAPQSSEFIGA

Consider `C=CCn1cc(-c2nccc(Nc3cc(N[C@H]4CC[C@@](C)(O)CC4)c(-c4ccn(C(F)F)n4)cn3)n2)cn1` [Example 116, (1s,4s)-4-((2-((2-(1-Allyl-1H-pyrazol-4-yl)pyrimidin-4-yl)amino)-5-(1-(difluoromethyl)-1H-pyrazol-3-yl)pyridin-4-yl)amino)-1-methylcyclohexan-1-ol], for which the IC50 in assay [1] (setting [6]) amounted to 27.6 nM; in assay [2] (setting [7]) it was 5 nM; in assay [3] (setting [8]), 0.6 nM; in assay [4] (setting [9]), 0.7 nM; in assay [5] (setting [10]), 77.2 nM.

`Cn1ccc(-c2cnc(Nc3ccnc(-c4cnn(S(=O)(=O)C5CC5)c4)n3)cc2N[C@H]2CC[C@@H](N(C)C)CC2)n1` [Example 124, N^2-(2-(1-(Cyclopropylsulfonyl)-1H-pyrazol-4-yl)pyrimidin-4-yl)-N^4-((1s,4s)-4-(dimethylamino)cyclohexyl)-5-(1-methyl-1H-pyrazol-3-yl)pyridine-2,4-diamine]: the IC50 in assay [1] (setting [11]) stood at 0.6 nM; in assay [1] (setting [6]), 0.4 nM; in assay [2] (setting [12]), 9.6 nM; in assay [2] (setting [7]) it was 0.5 nM; in assay [3] (setting [13]), 0.2 nM; in assay [3] (setting [8]), 0.1 nM. Also, the IC50 in assay [4] (setting [14]) was 0.1 nM; in assay [4] (setting [9]), 0.1 nM; in assay [5] (setting [15]) it was 801 nM; in assay [5] (setting [10]), 1.1 nM.

As to `CN(CC(F)F)C(=O)[C@H]1CC[C@@H](Nc2cc(Nc3ccnc(-c4cnn(S(=O)(=O)C5CC5)c4)n3)ncc2-c2ccn(C(F)F)n2)CC1` [Example 204, (1s,4s)-4-((2-((2-(1-(Cyclopropylsulfonyl)-1H-pyrazol-4-yl)pyrimidin-4-yl)amino)-5-(1-(difluoromethyl)-1H-pyrazol-3-yl)pyridin-4-yl)amino)-N-(2,2-difluoroethyl)-N-methylcyclohexane-1-carboxamide], the IC50 in assay [1] (setting [11]) came out at 4 nM; in assay [2] (setting [12]) it was 36.1 nM; in assay [3] (setting [13]) it was 0.9 nM; in assay [3] (setting [8]), 0.9 nM; in assay [4] (setting [14]), 0.8 nM; in assay [4] (setting [9]), 0.4 nM. The IC50 was greater than 10000 nM in assay [5] (setting [15]) and 9.5 nM in assay [5] (setting [10]).

Consider `O=S(=O)(C1CC1)n1cc(-c2nccc(Nc3cc(N[C@H]4CCC[C@H](CO)C4)c(-c4ccn(CC(F)(F)F)n4)cn3)n2)cn1` [Example 271, ((1S,3S)-3-((2-((2-(1-(Cyclopropylsulfonyl)-1H-pyrazol-4-yl)pyrimidin-4-yl)amino)-5-(1-(2,2,2-trifluoroethyl)-1H-pyrazol-3-yl)pyridin-4-yl)amino)cyclohexyl)methanol], for which the IC50 worked out at 122 nM in assay [1] (setting [11]); 10.3 nM in assay [1] (setting [6]); 8.7 nM in assay [2] (setting [12]); 4.6 nM in assay [2] (setting [7]); 1.4 nM in assay [3] (setting [13]); 0.6 nM in assay [3] (setting [8]). Moreover, the IC50 in assay [4] (setting [14]) is 1.4 nM; in assay [4] (setting [9]), 0.5 nM; in assay [5] (setting [15]), greater than 10000 nM; in assay [5] (setting [10]) it was 50.1 nM.

Turning to `CN(C)CCCn1ccc(-c2cnc(Nc3ccnc(-c4cnn(S(=O)(=O)C5CC5)c4)n3)cc2NCC2(CO)COC2)n1` [Example 279, (3-(((2-((2-(1-(Cyclopropylsulfonyl)-1H-pyrazol-4-yl)pyrimidin-4-yl)amino)-5-(1-(3-(dimethylamino)propyl)-1H-pyrazol-3-yl)pyridin-4-yl)amino)methyl)oxetan-3-yl)methanol], the IC50 in assay [1] (setting [11]) is 1 nM; in assay [1] (setting [6]), 0.6 nM; in assay [2] (setting [12]), 14.2 nM; in assay [2] (setting [7]), 0.6 nM; in assay [3] (setting [13]), 0.3 nM; in assay [3] (setting [8]), 0.5 nM. Further, the IC50 amounted to 0.4 nM in assay [4] (setting [14]), 0.3 nM in assay [4] (setting [9]), 4690 nM in assay [5] (setting [15]) and 4.9 nM in assay [5] (setting [10]).

Regarding `Cn1ccc(-c2cnc(Nc3ccnc(-c4cnn(S(=O)(=O)C5CC5)c4)n3)cc2NC2CCCC(NCCF)C2)n1` (stereo not shown) [Example 225, N^2-(2-(1-(Cyclopropylsulfonyl)-1H-pyrazol-4-yl)pyrimidin-4-yl)-N^4-(3-((2-fluoroethyl)amino)cyclohexyl)-5-(1-methyl-1H-pyrazol-3-yl)pyridine-2,4-diamine], the IC50 is 6.7 nM in assay [1] (setting [11]); 2.9 nM in assay [1] (setting [6]); 15.3 nM in assay [2] (setting [12]); 5 nM in assay [2] (setting [7]); 0.2 nM in assay [3] (setting [13]); 0.3 nM in assay [3] (setting [8]). In addition, the IC50 in assay [4] (setting [14]) is 0.6 nM; in assay [4] (setting [9]), 0.2 nM; in assay [5] (setting [15]), greater than 10000 nM; in assay [5] (setting [10]), 27.4 nM.

For the compound `CN(C)C[C@H]1CC[C@@H](Nc2cc(Nc3ccnc(-c4cnn(S(=O)(=O)C5CC5)c4)n3)ncc2-c2cc(C(F)(F)F)n(C)n2)CC1` [Example 256, N^2-(2-(1-(Cyclopropylsulfonyl)-1H-pyrazol-4-yl)pyrimidin-4-yl)-N^4-((1s,4s)-4-((dimethylamino)methyl)cyclohexyl)-5-(1-methyl-5-(trifluoromethyl)-1H-pyrazol-3-yl)pyridine-2,4-diamine], the IC50 in assay [1] (setting [11]) was determined as 2 nM; in assay [1] (setting [6]) it was 0.8 nM; in assay [2] (setting [12]), 7.5 nM; in assay [3] (setting [8]), 1.4 nM; in assay [4] (setting [14]) it was 0.5 nM; in assay [4] (setting [9]) it was 0.4 nM. The IC50 stood at 123 nM in assay [5] (setting [15]) and 0.5 nM in assay [5] (setting [10]).

`O=S(=O)(C1CC1)n1cc(-c2nccc(Nc3cc(N[C@H]4CC[C@@H](O)C4)c(-c4ccn(C(F)F)n4)cn3)n2)cn1` [Example 14, (1R,3S)-3-((2-((2-(1-(Cyclopropylsulfonyl)-1H-pyrazol-4-yl)pyrimidin-4-yl)amino)-5-(1-(difluoromethyl)-1H-pyrazol-3-yl)pyridin-4-yl)amino)cyclopentan-1-ol]: the IC50 turned out to be 4.9 nM in assay [1] (setting [11]); 14.2 nM in assay [2] (setting [12]); 0.6 nM in assay [3] (setting [13]); 0.9 nM in assay [4] (setting [14]); 7510 nM in assay [5] (setting [15]).

On to `Cn1nc(-c2cnc(Nc3ccnc(-c4cnn(S(=O)(=O)C5CC5)c4)n3)cc2N[C@H]2CC[C@@](C)(O)CC2)cc1C(C)(C)O` [Example 293, (1s,4s)-4-((2-((2-(1-(Cyclopropylsulfonyl)-1H-pyrazol-4-yl)pyrimidin-4-yl)amino)-5-(5-(2-hydroxypropan-2-yl)-1-methyl-1H-pyrazol-3-yl)pyridin-4-yl)amino)-1-methylcyclohexan-1-ol], for which the IC50 was 0.9 nM in assay [1] (setting [11]); 0.8 nM in assay [1] (setting [6]); 0.3 nM in assay [2] (setting [7]); 0.6 nM in assay [3] (setting [13]); 0.4 nM in assay [3] (setting [8]); 0.4 nM in assay [4] (setting [14]). For the same compound, the IC50 in assay [4] (setting [9]) stood at 0.2 nM; in assay [5] (setting [15]), 183 nM; in assay [5] (setting [10]), 0.6 nM.

In the case of `C[C@]1(O)CC[C@@H](Nc2cc(Nc3ccnc(-c4cnn(S(=O)(=O)N5CCCC5)c4)n3)ncc2-c2ccn(C(F)F)n2)CC1` [Example 323, (1s,4s)-4-((5-(1-(Difluoromethyl)-1H-pyrazol-3-yl)-2-((2-(1-(pyrrolidin-1-ylsulfonyl)-1H-pyrazol-4-yl)pyrimidin-4-yl)amino)pyridin-4-yl)amino)-1-methylcyclohexan-1-ol], the IC50 stood at 1060 nM in assay [1] (setting [6]); 143 nM in assay [2] (setting [7]); 10.4 nM in assay [3] (setting [8]); 4.6 nM in assay [4] (setting [9]); 466 nM in assay [5] (setting [10]).

Regarding `CC(C)Nc1cc(Nc2ccnc(-c3cnn(S(=O)(=O)C4CC4)c3)n2)ncc1-c1ccn(C(F)F)n1` [Example 144, N^2-(2-(1-(Cyclopropylsulfonyl)-1H-pyrazol-4-yl)pyrimidin-4-yl)-5-(1-(difluoromethyl)-1H-pyrazol-3-yl)-N^4-isopropylpyridine-2,4-diamine], the IC50 came to 24 nM in assay [1] (setting [6]); 12.5 nM in assay [2] (setting [7]); 1.2 nM in assay [3] (setting [8]); 0.7 nM in assay [4] (setting [9]); 687 nM in assay [5] (setting [10]).

In the case of `Cn1nc(-c2cnc(Nc3ccnc(-c4cnn(S(=O)(=O)C5CC5)c4)n3)cc2N[C@H]2CC[C@H](CCO)CC2)cc1C(F)(F)F` [Example 263, 2-((1r,4r)-4-((2-((2-(1-(Cyclopropylsulfonyl)-1H-pyrazol-4-yl)pyrimidin-4-yl)amino)-5-(1-methyl-5-(trifluoromethyl)-1H-pyrazol-3-yl)pyridin-4-yl)amino)cyclohexyl)ethan-1-ol], the IC50 is 237 nM in assay [1] (setting [11]); 15.5 nM in assay [1] (setting [6]); 32.5 nM in assay [2] (setting [12]); 6.3 nM in assay [2] (setting [7]); 9.9 nM in assay [3] (setting [13]); 0.3 nM in assay [3] (setting [8]). The IC50 in assay [4] (setting [14]) is 11.5 nM; in assay [4] (setting [9]) it was 2.6 nM; in assay [5] (setting [15]), greater than 10000 nM; in assay [5] (setting [10]) it was 54.5 nM.

As to `C[C@H](CCF)Nc1cc(Nc2ccnc(-c3cnn(S(=O)(=O)C4CC4)c3)n2)ncc1-c1ccn(C(F)F)n1` [Example 212, (R)—N^2-(2-(1-(Cyclopropylsulfonyl)-1H-pyrazol-4-yl)pyrimidin-4-yl)-5-(1-(difluoromethyl)-1H-pyrazol-3-yl)-N^4-(4-fluorobutan-2-yl)pyridine-2,4-diamine], the IC50 in assay [1] (setting [6]) is 72 nM; in assay [2] (setting [7]) it was 38.5 nM; in assay [3] (setting [8]), 2.1 nM; in assay [4] (setting [9]) it was 2.3 nM; in assay [5] (setting [10]), 294 nM.
